Experimental data as given in patent US20240262804A1, “NITROGEN-CONTAINING HETEROCYCLIC KETONES, PREPARATION METHODS AND MEDICINAL USES THEREOF” (Hansoh Bio LLC, priority 2021, published 2024).
Marks after values point to notes of the source that are not given here.

Tests used:
bovine cardiac myosin = bovine cardiac myosin (Bos taurus (Bovine), UniProt Q9BE39); experiment: Myosin inhibitory potency: PK/LDH-coupled ATPase assay on bovine skinned cardiac myofibrils; type: biochemical; conditions: pCa=6.25, 50 μM ATP, 25° C., read-out: myosin inhibition activity IC50
In short: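 Bovine left-ventricle skinned myofibrils (1 mg/mL) in PM12 buffer pH 6.8 at pCa 6.25, 50 μM ATP, PK/LDH-coupled NADH depletion read at 340 nm, 25 °C.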

[1] = target: bovine skinned cardiac myofibrils (myosin) (Bos taurus (Bovine), UniProt Q9BE39); experiment: Myosin inhibitory potency comparison: ATPase assay, cardiac myofibrils; type: biochemical; conditions: pCa=6.25
Description: (§1) In our experiments, bovine skinned cardiac myofibrils were isolated from the frozen bovine left ventricle as myosin's source in the ATPase assay. The calcium concentration that achieves a 50% (pCa50 or pCa=6.25) activation of the myofibril system was chosen as the final condition for assessing the activation activity according to the literature (DOI: 10.1074/jbc.M117.776815). Myofibrils ATPase activity was measured in a buffered solution containing 12 mM PIPES (piperazine-N, N′-bis(2-ethane sulfonic acid) and 2 mM magnesium chloride at pH 6.8 (PM12 buffer). Final assay conditions were 1 mg/mL of bovine cardiac myofibrils, 1:20 of stock PK/LDH (Sigma-Aldrich, Cat No. P0294-5X5ML), 50 μM ATP, 1 mM DTT (dithiothreitol), 0.75 mM NADH, 1.5 mM PEP at pCa50 (pCa=6.25). Compounds were dissolved in DMSO (dimethyl sulfoxide). Serial dilution of compounds was created such that the final desired concentration of compound would be achieved in a volume of 150 μL with a fixed DMSO concentration of 2% (v/v). 75 μL of a solution containing bovine cardiac myofibrils, PK/LDH, and calcium were added to a 96 well plate for a 7 point dose-response. In some circumstances, 10 point-response was used to repeat the ATPase assays on compounds of interest. Compounds were added to the myofibrils solution and incubated for 5 minutes. The enzymatic reaction was started with the addition of 75 μL of a solution containing ATP, PEP, NADH, compounds, and calcium. The ATPase activity was measured by reading absorbance at 340 nm in a PerkinElmer Victor Nivo plate reader at 25° C. in kinetic mode for 15 minutes using clear bottom plates. The slopes of the absorbance changes as a function of time for the first 10 minutes were normalized to slopes on the control wells containing all reagents, including DMSO, but without compounds. This normalized rate was then plotted as a function of small molecule concentration in GraphPad prism 9. The data were fitted to a four-parameter fit, and IC50 was calculated using Graphpad Prism 9.
(§2) Bovine skinned cardiac myofibrils were isolated from the frozen bovine left ventricle, and rabbit skinned skeletal myofibrils were isolated from the frozen rabbit Psoas major and minor muscles as myosin's source in the ATPase assay. The calcium concentration that achieves a 50% activation of the myofibril system (pCa=6.25 for bovine cardiac myofibrils and pCa=6 for rabbit skeletal myofibrils) was chosen as the final condition for assessing the activation activity according to the literature (DOI:10.1074/jbc.M117.776815). Rest of ATPase assay conditions are the same as illustrated in experiment 1.

[2] = tested on: rabbit skinned skeletal myofibrils (myosin); experiment: Myosin inhibitory potency comparison: ATPase assay, skeletal myofibrils; type: biochemical; conditions: for Skeleta/Cardiac: ratio of skeletal IC50 to cardiac IC50
Description: as §1, §2

[3] = tested on: isolated rat ventricular myocytes; experiment: Cardiomyocyte contractility assay (sarcomere shortening, IonOptix); type: cell-based; conditions: for Ratio of % FS 5 uM/15 uM: 5 uM versus 15 uM
Description: The effects of compounds on sarcomere shortening in isolated rat ventricular myocytes were assessed using the IonOptix apparatus.
Myocytes were placed in a chamber mounted on the stage of an inverted microscope and continuously superfused with oxygenated Tyrode solution containing (in millimolar): 121 NaCl, 5 KCl, 2.8 NaCH3CO2, MgCl2·6H2O, Glucose, NaHCO3, Na2HPO4. 7H2O, and 1.5 mM CaCl2). Solution was preheated at 36±1° C. and electrical-field stimulated at 1 Hz by 2 platinum electrodes connected to a Myopacer field stimulator (IonOptix Corporation) with 4 ms square-wave bipolar pulses (10 V). Cells were illuminated by the microscope light. The cell image was collected by a x40 ultraviolet epifluorescence objective, diverted to the microscope side port, where the cell image was recorded by a charge coupled device (CCD) camera (MyoCam, IonOptix Corporation), converting optical brightness (pixels) into electrical signals (voltage). The MyoCam configuration allowed acquisition of up to 240 images per second (240 Hz frame rate). Contractile properties of the myocytes were analyzed in real time by a video detector and a personal computer-based data acquisition system (Ionwizard 6.0, IonOptix Corporation). Only myocytes with clear striations, quiescent prior to pacing with a resting sarcomere length greater or equal to 1.75 μm were used, since this is presumed to represent the lower limit for healthy cells.
Sarcomere shortening was monitored in control solution (predrug) until stable recordings were obtained (baseline period). To determine the response to compounds, myocytes were first superfused for 60 seconds with Tyrode's buffer followed by at least a 5 minute—(or until steady state was reached, up to 10 min) superfusion of compound. Each cell was subjected to 2 concentrations (5 and 15 uM or 5 and 10 uM) of test compounds. For some cells, a washout period was performed after the last concentration. Duration of the washout period was variable, resulting in variability in the washout data. In separate cells, a single concentration of isoproterenol (100 nM) was applied. Data were continuously recorded using the IonOptix software. Contractility data were analyzed using Ionwizard software (IonOptix). For each cell, 10-15 contractility transients at baseline and after treatment were averaged and compared.

[4] = Pharmacokinetic profiles in male SD rats (IV and PO); type: in vivo, rat; conditions: IV 1 mg/kg, PO 5 mg/kg, route for this parameter not given; for clearance / half-life / Vd: rat, plasma; for Vd: read-out: VSS
Description: Pharmacokinetic profile of compounds were determined by IV (1 mg/Kg) and PO (5 mg/Kg) administrations in male SD rats. Compounds were administrated with free base and formulated in 5% DMAC+25% PEG-400+70%(30% 2-HP-β-CD in water). The compounds were dosed at 1 mg/kg for intravenous and 5 mg/kg oral administration. Blood samples were collected at 0, 0.083, 0.25, 0.5, 1, 2, 4, 8 and 24 hours post dose, serial bleeding for plasma for the IV group. Blood samples were collected at 0, 0.25, 0.5, 1, 2, 4, 6, 8 and 24 hours post dose, serial bleeding for the PO group. Approximately 150 μL whole blood/time point were collected in K2EDTA tube via jugular vein. Blood sample was put on ice and centrifuged at 2000 g for 5 min to obtain plasma sample within 15 minutes. PK parameters were estimated by non-compartmental model using WinNonlin 8.2.

[5] = tested on: heart function (cardiac contractility); experiment: Echocardiography assessment of acute pharmacodynamic effect in rat cardiac contractility; type: in vivo; conditions: Spraw-Dawley rats
Description: The Effect of Compounds on Heart Function was Determined by Echocardiography in Spraw-Dawley rats. Rats were under light anesthesia with 1-2% isoflurane. Compounds were dosed via oral gavage as single PO. Baseline heart functions were measured 1 day before dosing. The effect of compounds on heart function were measured at 1, 3, 6, and 24 hours post dosing. About 250 μL of whole blood was obtained at ˜1, 3, 6 and 24 hours post-dose via tail vein, immediately after the Echocardiography procedure. Blood was placed into a plasma separator tube containing K2 EDTA and kept on wet ice until processing. Blood samples were centrifuged at 2,000 g (4,400 rpm, Eppendorf 5417R) for 10 minutes at 4° C. Plasma samples were then transferred into micro-tubes and stored at −80° C. for future LC/MS analysis. The data were plotted as reduction of Fractional shortening vs plasma compound concentration. Therapeutic windows were determined as IC50/IC10 according to the literature (DOI: https://doi.org/10.1021/acs.jmedchem.1c01290).

[6] = rat ventricular myocytes, paced at 1 Hz

Chain of bovine skinned cardiac myofibrils (myosin) (Q9BE39 whole entry): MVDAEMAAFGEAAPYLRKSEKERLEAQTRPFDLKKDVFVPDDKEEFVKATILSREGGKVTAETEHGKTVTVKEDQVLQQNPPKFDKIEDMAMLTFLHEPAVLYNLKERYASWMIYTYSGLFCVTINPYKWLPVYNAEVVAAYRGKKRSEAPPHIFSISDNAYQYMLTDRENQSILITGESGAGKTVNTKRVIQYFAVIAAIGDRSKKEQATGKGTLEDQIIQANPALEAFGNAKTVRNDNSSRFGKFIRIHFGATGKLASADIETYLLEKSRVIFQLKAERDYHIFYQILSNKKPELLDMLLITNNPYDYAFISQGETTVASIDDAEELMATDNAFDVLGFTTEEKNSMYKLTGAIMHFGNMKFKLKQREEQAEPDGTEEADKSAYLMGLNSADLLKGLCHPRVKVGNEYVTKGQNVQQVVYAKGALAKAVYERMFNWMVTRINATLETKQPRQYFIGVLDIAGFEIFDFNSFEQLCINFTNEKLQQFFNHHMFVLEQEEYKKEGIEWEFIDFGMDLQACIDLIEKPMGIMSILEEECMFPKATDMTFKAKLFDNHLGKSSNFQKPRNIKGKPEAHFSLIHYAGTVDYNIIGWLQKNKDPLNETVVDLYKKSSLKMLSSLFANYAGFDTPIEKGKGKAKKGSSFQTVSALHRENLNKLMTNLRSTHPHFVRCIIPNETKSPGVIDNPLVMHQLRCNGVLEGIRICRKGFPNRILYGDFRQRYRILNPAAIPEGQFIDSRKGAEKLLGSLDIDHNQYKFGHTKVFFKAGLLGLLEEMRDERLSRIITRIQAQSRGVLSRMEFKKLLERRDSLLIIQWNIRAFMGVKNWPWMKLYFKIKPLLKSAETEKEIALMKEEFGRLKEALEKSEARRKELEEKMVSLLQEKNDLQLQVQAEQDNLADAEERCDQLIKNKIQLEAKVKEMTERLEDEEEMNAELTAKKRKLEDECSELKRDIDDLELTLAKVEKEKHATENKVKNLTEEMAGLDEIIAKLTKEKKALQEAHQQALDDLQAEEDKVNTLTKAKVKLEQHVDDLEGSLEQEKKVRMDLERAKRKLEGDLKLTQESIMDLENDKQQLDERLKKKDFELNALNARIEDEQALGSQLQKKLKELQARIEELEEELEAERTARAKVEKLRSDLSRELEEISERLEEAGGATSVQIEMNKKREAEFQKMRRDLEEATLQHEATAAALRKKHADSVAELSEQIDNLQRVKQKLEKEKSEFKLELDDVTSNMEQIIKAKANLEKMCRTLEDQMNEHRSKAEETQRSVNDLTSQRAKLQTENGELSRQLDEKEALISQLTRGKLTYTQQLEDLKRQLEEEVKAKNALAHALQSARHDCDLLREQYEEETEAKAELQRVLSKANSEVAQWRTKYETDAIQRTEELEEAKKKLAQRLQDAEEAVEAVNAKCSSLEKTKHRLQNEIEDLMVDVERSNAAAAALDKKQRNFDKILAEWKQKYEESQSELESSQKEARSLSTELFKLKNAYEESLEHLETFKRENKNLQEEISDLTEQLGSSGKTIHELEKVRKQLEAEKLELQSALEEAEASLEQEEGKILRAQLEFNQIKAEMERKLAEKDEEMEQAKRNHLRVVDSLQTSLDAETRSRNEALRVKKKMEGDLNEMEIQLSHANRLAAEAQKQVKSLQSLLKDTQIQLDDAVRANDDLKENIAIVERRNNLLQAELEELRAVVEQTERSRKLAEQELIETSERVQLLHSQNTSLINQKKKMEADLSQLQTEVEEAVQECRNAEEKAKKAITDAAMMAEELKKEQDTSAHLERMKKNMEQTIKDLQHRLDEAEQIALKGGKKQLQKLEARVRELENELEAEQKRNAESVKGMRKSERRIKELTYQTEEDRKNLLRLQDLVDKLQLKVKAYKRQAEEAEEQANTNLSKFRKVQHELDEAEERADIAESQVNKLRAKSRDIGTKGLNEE
Chain of bovine skinned cardiac myofibrils (myosin) (P85100 whole entry partner): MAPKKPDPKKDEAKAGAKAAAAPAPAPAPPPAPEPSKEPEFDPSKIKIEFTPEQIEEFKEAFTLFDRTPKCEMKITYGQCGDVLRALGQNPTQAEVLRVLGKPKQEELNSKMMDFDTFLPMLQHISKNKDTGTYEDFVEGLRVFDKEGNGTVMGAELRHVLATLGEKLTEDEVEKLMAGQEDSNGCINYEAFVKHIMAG
Chain of bovine skinned cardiac myofibrils (myosin) (Q3SZE5 whole entry partner): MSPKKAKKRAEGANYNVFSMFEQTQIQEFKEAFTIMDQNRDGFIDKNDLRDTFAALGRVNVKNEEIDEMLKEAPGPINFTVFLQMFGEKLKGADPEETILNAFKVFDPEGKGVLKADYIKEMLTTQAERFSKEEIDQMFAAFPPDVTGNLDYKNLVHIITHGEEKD
Chain of bovine cardiac myosin (Q9BE39 whole entry): as the sequence (Q9BE39 whole entry) above
Chain of bovine cardiac myosin (P85100 whole entry partner): as the sequence (P85100 whole entry partner) above
Chain of bovine cardiac myosin (Q3SZE5 whole entry partner): as the sequence (Q3SZE5 whole entry partner) above

SMILES | IC50 (bovine cardiac myosin) [nM] | IC50 [1] [nM] | Skeleta/Cardiac [2] | Ratio of % FS 5 uM/10 uM ([3]; 5 uM versus 10 uM (cell marked *)) | % FS (% reduction from baseline) at 5 uM [3, 6] | % FS (% reduction from baseline) at 10 uM ([3]; 10 uM (cell marked *), rat ventricular myocytes, paced at 1 Hz) | DNAUC [4] [ng·h/mL] | clearance [4] [mL/min/kg] | half-life [4] [h] | Vd [4] [L/kg] | Ratio of % FS 5 uM/15 uM [3] | % FS (% reduction from baseline) at 15uM [3, 6] | cardiac-skeletal myosin selectivity (in words) [2] | potency in inhibiting fast skeletal myofibril activity (in words) ([2]; compared with cardiac myofibrils) | effect on heart contractility at 20 mpk (FIG. 2) ([5]; single PO, 20 mpk) | effect on heart contractility, dose dependence (FIG. 2) ([5]; single PO, up to 10 mpk) | therapeutic window, plasma exposure vs fractional shortening (in words) ([5]; therapeutic window as IC50/IC10)
CC(C)n1c(=O)nc(N[C@@H](C)C2CCCCC2)[nH]c1=O [Example 45] | 2800 | 7580 | 5.36 | – | – | – | – | – | – | – | – | – | – | – | – | – | –
Cc1cccc([C@H](C)Nc2nc(=O)n(C3CCOCC3)c(=O)[nH]2)c1 [Example 4] | – | 660 | – | 1.7* | 71.2 +/− 7.6% | 42.4 +/− 4.2* % | 2299.6 | 5.5 | 3.35 | 1.17 | – | – | – | – | – | – | –
C[C@H](Nc1nc(=O)n(C2CCOCC2)c(=O)[nH]1)c1ccc(OC(F)(F)F)cc1 [Example 152] | 1210 | 1790 | 2.39 | – | 62.9 +/− 6.2% | – | – | – | – | – | 2.4 | 26.7 +/− 6.4% | – | – | – | – | –
Cc1cc([C@H](C)Nc2nc(=O)n(C3CCOCC3)c(=O)[nH]2)ccc1F [Example 156] | 1130 | – | – | – | 61.5 +/− 5.2% | – | 5052.2 | 3.17 | 5.47 | 0.97 | 2.4 | 26.1 +/− 4% | – | – | – | – | –
Cc1ccc([C@H](C)Nc2nc(=O)n(C3CCOCC3)c(=O)[nH]2)c(C)c1 [Example 168] | 1700 | – | – | – | 54.3 +/− 9.3% | – | 13412.2 | 1.33 | 3.89 | 0.32 | 2.2 | 24.3 +/− 8.5% | – | – | – | – | –
C[C@H](Nc1nc(=O)n(C2CCOCC2)c(=O)[nH]1)c1ccc(F)cc1F [Example 10] | 1840 | 1500 | 29.01 | – | 51 +/− 6% | – | 1724.7 | 9.17 | 4.51 | 1.78 | 1.2 | 41.5 +/− 6.3% | better cardiac-skeletal myosin selectivity | way less potent | do not further inhibit heart contractility at 20 mpk | dose dependent under 10 mpk | superior therapeutic windows
